Test results from US12285407B2, “Bis-indolylmethane derivatives and uses thereof” (The University of The West Indies, priority 2018, dated 2025).
Like-named read-outs stand apart in the source and are kept apart here.

Legend:
[1] = system: Streptococcus pneumoniae; assay: Adjuvant broth microdilution (antibiotic MIC with SP-BIM at 50 μg/mL); format: cell-based; details: Streptococcus pneumoniae; Streptococcus pneumonia; antibiotic alone; Table 5; read-out: MIC of antibiotic, No compound
[2] = system: Escherichia coli; assay: microbe, parasite or virus in culture; format: cell-based; details: antibiotic alone, Table 6, read-out: MIC of antibiotic, No compound
[3] = system: Staphylococcus aureus; assay: Checkerboard synergy (FICI) of antibiotics with SP-BIM; format: cell-based; details: Staphylococcus aureus, Staphylococcus aureus; for MIC: 24 h, antibiotic alone, read-out: MIC antibiotic only
[4] = system: Streptococcus pneumoniae; assay: as above; format: cell-based; details: for MIC: 24 h, antibiotic alone, read-out: MIC antibiotic only
[5] = system: Bacillus cereus; assay: as above; format: cell-based; details: for MIC: 24 h, antibiotic alone, read-out: MIC antibiotic only
[6] = system: Enterococcus faecium; assay: as above; format: cell-based; details: Enterococcus faecium, Enterococcus faecium; for MIC: 24 h, antibiotic alone, read-out: MIC antibiotic only
[7] = system: Klebsiella pneumoniae; assay: as above; format: cell-based; details: for MIC: 24 h, antibiotic alone, read-out: MIC antibiotic only
[8] = system: clinical strains of MRSA; assay: Kirby Bauer disc diffusion susceptibility profile; format: cell-based, Staphylococcus aureus; details: for Zone of clearance: 35° C., 24 hours, average n=3; for Interpretive standard (resistant/susceptible): zones vs EUCAST breakpoints (Table 30)
[9] = system: clinical strains of Enterococcus faecium; assay: Kirby Bauer disc diffusion susceptibility profile; format: cell-based; details: for Zone of clearance: 35° C., 24 hours, average n=3; for Interpretive standard (resistant/susceptible): zones vs EUCAST breakpoints (Table 31)
[10] = system: Escherichia coli; assay: Checkerboard synergy (FICI) of antibiotics with SP-BIM; parameters: MIC SP-BIM 13 only / MIC in combination: Antibiotic: unit not given beside the values; details: for MIC: 24 h
[11] = system: Candida albicans; assay: as above; parameters: MIC SP-BIM 13 only / MIC in combination: Antibiotic / MIC antibiotic only: unit not given beside the values
[12] = SP-BIM 9 in combination with the labelled antibiotic
[13] = SP-BIM 13 in combination with the labelled antibiotic
[14] = antibiotic in combination with SP-BIM 9
[15] = antibiotic in combination with SP-BIM 13
[16] = Streptococcus pneumonia (title: Streptococcus pyogenes), antibiotic + SP-BIM 9
[17] = Streptococcus pneumoniae, antibiotic + SP-BIM 13
[18] = SP-BIM 9 concentration in combination with the labelled antibiotic
[19] = MIC of the antibiotic in combination with SP-BIM 13

`[H]/N=C(/N)N[C@H]1[C@H](O)[C@@H](O)[C@H](O[C@@H]2O[C@@H](C)[C@](O)(C=O)[C@H]2O[C@@H]2O[C@@H](CO)[C@H](O)[C@@H](O)[C@@H]2NC)[C@@H](N/C(N)=N\[H])[C@@H]1O` [Streptomycin, streptomycin] was tested, and the MIC [1] was 16 µg/mL, the MIC [2] was 8 µg/mL and the MIC ([3]; SP-BIM 9 checkerboard) was 8 µg/mL. For the same compound, the MIC ([3]; SP-BIM 13 checkerboard) was 8 µg/mL, the “FIC of SP-BIM 9” value [3, 12] was 0.25 and the “FIC of SP-BIM 13” value [3, 13] was 0.3. The Interpretation ([3]; antibiotic + SP-BIM 9) was “Synergy (Synergy: FICI≤0.5)”, the “Σ FIC” value ([3]; antibiotic + SP-BIM 9) was less than 0.38 and the Interpretation ([3]; antibiotic + SP-BIM 13) was “Synergy (Synergy: FICI≤0.5)”. For the same compound, the “Σ FIC” value ([3]; antibiotic + SP-BIM 13) was 0.3, the “MIC in combination, Antibiotic” value [3, 14] was 1.0 µg/mL and the “MIC in combination, Antibiotic” value [3, 15] was 0.25 µg/mL. For the same compound, the FIC of antibiotic ([3]; in combination with SP-BIM 9) was 0.13, the FIC of antibiotic ([3]; in combination with SP-BIM 13) was 0.0 and the “FIC of SP-BIM 9” value ([4]; Streptococcus pneumonia (title: Streptococcus pyogenes), SP-BIM 9 in combination with the labelled antibiotic) was 0.06. The Interpretation [4, 16] was “Synergy (Synergy: FICI≤0.5)”, the “Σ FIC” value [4, 16] was less than 0.07 and the “MIC in combination, Antibiotic” value ([4]; Streptococcus pneumonia (title: Streptococcus pyogenes), antibiotic in combination with SP-BIM 9) was 0.2 µg/mL. For the same compound, the FIC of antibiotic ([4]; Streptococcus pneumonia (title: Streptococcus pyogenes), in combination with SP-BIM 9) was 0.01, the MIC ([4]; Streptococcus pneumoniae, Streptococcus pneumonia (title: Streptococcus pyogenes), SP-BIM 9 checkerboard) was 32 µg/mL and the MIC ([4]; Streptococcus pneumoniae, Streptococcus pneumoniae, SP-BIM 13 checkerboard) was 32 µg/mL. For the same compound, the “FIC of SP-BIM 13” value ([4]; Streptococcus pneumoniae, SP-BIM 13 in combination with the labelled antibiotic) was 0.3, the Interpretation [4, 17] was “Synergy (Synergy: FICI≤0.5)” and the “Σ FIC” value [4, 17] was less than 0.3. For the same compound, the “MIC in combination, Antibiotic” value ([4]; Streptococcus pneumoniae, antibiotic in combination with SP-BIM 13) was 1 µg/mL, the FIC of antibiotic ([4]; Streptococcus pneumoniae, in combination with SP-BIM 13) was 0.0 and the MIC ([5]; SP-BIM 9 checkerboard) was 4 µg/mL. The MIC ([5]; SP-BIM 13 checkerboard) was 4 µg/mL, the “MIC in combination, SP-BIM 9” value [5, 18] was greater than 250 µg/mL and the “FIC of SP-BIM 9” value [5, 12] was 1. For the same compound, the “FIC of SP-BIM 13” value [5, 13] was 0.1, the Interpretation ([5]; antibiotic + SP-BIM 9) was “Synergy (Synergy: FICI≤0.5)” and the “Σ FIC” value ([5]; antibiotic + SP-BIM 9) was less than 1.1. For the same compound, the Interpretation ([5]; antibiotic + SP-BIM 13) was “Synergy (Synergy: FICI≤0.5)”, the “Σ FIC” value ([5]; antibiotic + SP-BIM 13) was less than 0.3 and the “MIC in combination, Antibiotic” value [5, 14] was 0.5 µg/mL. The “MIC in combination, Antibiotic” value [5, 15] was 0.5 µg/mL, the FIC of antibiotic ([5]; in combination with SP-BIM 9) was 0.125 and the FIC of antibiotic ([5]; in combination with SP-BIM 13) was 0.13. The MIC ([6]; SP-BIM 9 checkerboard) was 32 µg/mL, the MIC ([6]; SP-BIM 13 checkerboard) was 32 µg/mL and the “MIC in combination, SP-BIM 9” value [6, 18] was 16 µg/mL. The “FIC of SP-BIM 9” value [6, 12] was 0.1, the “FIC of SP-BIM 13” value [6, 13] was 0.5 and the Interpretation ([6]; antibiotic + SP-BIM 9) was “Synergy (Synergy: FICI≤0.5)”. For the same compound, the “Σ FIC” value ([6]; antibiotic + SP-BIM 9) was no more than 0.3, the Interpretation ([6]; antibiotic + SP-BIM 13) was “Additive (Additive: FICI>0.5-1.0)” and the “Σ FIC” value ([6]; antibiotic + SP-BIM 13) was 0.6. For the same compound, the “MIC in combination, Antibiotic” value [6, 14] was 8 µg/mL, the “MIC in combination, Antibiotic” value [6, 15] was 4 µg/mL and the FIC of antibiotic ([6]; in combination with SP-BIM 9) was 0.3. The FIC of antibiotic ([6]; in combination with SP-BIM 13) was 0.1, the MIC ([7]; SP-BIM 9 checkerboard) was 125 µg/mL and the MIC ([7]; SP-BIM 13 checkerboard) was 125 µg/mL. The “FIC of SP-BIM 9” value [7, 12] was 0.5, the “FIC of SP-BIM 13” value [7, 13] was 0.0 and the Interpretation ([7]; antibiotic + SP-BIM 9) was “Additive (Additive: FICI>0.5-1.0)”. The “Σ FIC” value ([7]; antibiotic + SP-BIM 9) was less than 0.6, the Interpretation ([7]; antibiotic + SP-BIM 13) was “Synergy (Synergy: FICI≤0.5)” and the “Σ FIC” value ([7]; antibiotic + SP-BIM 13) was less than 0.3. For the same compound, the “MIC in combination, Antibiotic” value [7, 14] was 16 µg/mL, the “MIC in combination, Antibiotic” value [7, 15] was 32 µg/mL and the FIC of antibiotic ([7]; in combination with SP-BIM 9) was 0.128. The FIC of antibiotic ([7]; in combination with SP-BIM 13) was 0.3, the Zone of clearance ([8]; MRSA strain 1594) was 11.5 mm and the “Interpretive standard (resistant/susceptible)” value ([8]; MRSA strain 1594) was “R”. For the same compound, the Zone of clearance ([8]; MRSA strain 1621) was 17.0 mm, the “Interpretive standard (resistant/susceptible)” value ([8]; MRSA strain 1621) was “S” and the Zone of clearance ([8]; MRSA strain 5455) was 17.0 mm. For the same compound, the “Interpretive standard (resistant/susceptible)” value ([8]; MRSA strain 5455) was “S”, the Zone of clearance ([8]; MRSA strain 5872) was 8.0 mm and the “Interpretive standard (resistant/susceptible)” value ([8]; MRSA strain 5872) was “R”. For the same compound, the Zone of clearance ([8]; MRSA strain 7153) was 16.0 mm, the “Interpretive standard (resistant/susceptible)” value ([8]; MRSA strain 7153) was “I” and the Zone of clearance ([8]; MRSA strain 7172) was 18.5 mm. The “Interpretive standard (resistant/susceptible)” value ([8]; MRSA strain 7172) was “S”, the Zone of clearance ([8]; MRSA strain 7698) was 12.0 mm and the “Interpretive standard (resistant/susceptible)” value ([8]; MRSA strain 7698) was “R”. For the same compound, the Zone of clearance ([8]; MRSA strain 10132) was 8.5 mm, the “Interpretive standard (resistant/susceptible)” value ([8]; MRSA strain 10132) was “R” and the Zone of clearance ([9]; E. faecium strain 15134) was 20 mm. The “Interpretive standard (resistant/susceptible)” value ([9]; E. faecium strain 15134) was “S”, the Zone of clearance ([9]; E. faecium strain 21024) was 17 mm and the “Interpretive standard (resistant/susceptible)” value ([9]; E. faecium strain 21024) was “S”. For the same compound, the Zone of clearance ([9]; E. faecium strain 21955) was 13 mm, the “Interpretive standard (resistant/susceptible)” value ([9]; E. faecium strain 21955) was “R” and the Zone of clearance ([9]; E. faecium strain 22003) was 18 mm. The “Interpretive standard (resistant/susceptible)” value ([9]; E. faecium strain 22003) was “S”, the Zone of clearance ([9]; E. faecium strain 22870) was 29 mm and the “Interpretive standard (resistant/susceptible)” value ([9]; E. faecium strain 22870) was “S”. The Zone of clearance ([9]; E. faecium strain 23227) was 25 mm, the “Interpretive standard (resistant/susceptible)” value ([9]; E. faecium strain 23227) was “S” and the Zone of clearance ([9]; E. faecium strain 23230) was 14 mm. The “Interpretive standard (resistant/susceptible)” value ([9]; E. faecium strain 23230) was “S”, the Zone of clearance ([9]; E. faecium strain 23668) was 13 mm and the “Interpretive standard (resistant/susceptible)” value ([9]; E. faecium strain 23668) was “R”. The Zone of clearance ([9]; E. faecium strain 24169) was 19 mm, the “Interpretive standard (resistant/susceptible)” value ([9]; E. faecium strain 24169) was “S” and the Zone of clearance ([9]; E. faecium strain RC63) was 5 mm. For the same compound, the “Interpretive standard (resistant/susceptible)” value ([9]; E. faecium strain RC63) was “R”, the MIC ([10]; read-out: MIC antibiotic only, Escherichia coli, antibiotic alone) was 125 µg/mL and the MIC ([10]; read-out: MIC antibiotic only, Escherichia coli, antibiotic alone, SP-BIM 9 checkerboard) was 125 µg/mL. The “MIC in combination: Antibiotic” value [10, 19] was 4, the “FIC of SP-BIM 9” value [10, 12] was 1 and the “FIC of SP-BIM 13” value [10, 13] was 0.3. For the same compound, the Interpretation ([10]; antibiotic + SP-BIM 9) was “Indifferent (Indifferent: FICI>1.0-4.0)”, the “Σ FIC” value ([10]; antibiotic + SP-BIM 9) was less than 1.1 and the Interpretation ([10]; antibiotic + SP-BIM 13) was “Synergy (Synergy: FICI≤0.5)”. The “Σ FIC” value ([10]; antibiotic + SP-BIM 13) was less than 0.3, the “MIC in combination, Antibiotic” value [10, 14] was 8 µg/mL and the FIC of antibiotic ([10]; combination with SP-BIM 13) was 0.0. For the same compound, the FIC of antibiotic ([10]; in combination with SP-BIM 9) was 0.064, the MIC ([11]; 24 h, read-out: MIC antibiotic only) was greater than 250 µg/mL and the “MIC in combination: Antibiotic” value [11, 19] was 16. The “FIC of SP-BIM 13” value [11, 13] was 0.1, the Interpretation ([11]; antibiotic + SP-BIM 13) was “Synergy (Synergy: FICI≤0.5)” and the “Σ FIC” value ([11]; antibiotic + SP-BIM 13) was less than 0.2. It also gave an FIC of antibiotic ([11]; combination with SP-BIM 13) of 0.1.
